The test system of this assay is acute high-lipid mouse model. Kind of assay: Acute high-lipid mouse model resulted from egg yolk emulsion injection: serum cholesterol and triglycerides. It counts as in vivo, ICR mice. Particulars: for T-cho / Trig: ICR mice, oral 1 time/d for 14 d, blood 20 h after ip 75% egg yolk emulsion; for T-cho / Trig / Reduction rate of cholesterol / Reduction rate of triglyceride: dose 2 mg/mouse; for Reduction rate of cholesterol / Reduction rate of triglyceride: vs model mouse group, 14 d; for blood-lipid-lowering effect on the mouse model of high blood lipid caused by the egg yolk emulsion: after two weeks of oral administration, result in words. The method, then:
The Treatment Efficiency of Blood-Lipid-Lowering Traditional Chinese Medicine Compositions Having Different Component Proportions on the Acute High-Lipid Mouse Models Resulted from Egg Yolk Emulsion Injection Male ICR mice of 20 g˜22 g are divided into several groups after 5 d adaptive feeding: control group, fed with normal saline; model group, fed with normal saline; positive control group, fed with Xuezhikang of 1000 mg/kg.

On to `C[C@@H]1CC[C@H]2[C@@H](C)C(=O)O[C@@H]3O[C@@]4(C)CC[C@@H]1[C@]32OO4` [Artemisinin, artemisinin], for which the T-cho worked out at 6.10 ± 3.20 mmol/L, the Trig is recorded as 8.90 ± 4.00 mmol/L, the “Reduction rate of cholesterol” value was found to be 25.1% and the “Reduction rate of triglyceride” value is recorded as 12.9%.
Turning to `C[C@H]1[C@H](OC(=O)CCC(=O)O)O[C@@H]2O[C@@]3(C)CC[C@H]4[C@H](C)CC[C@@H]1[C@@]24OO3` [Artesunate, artesunate], the T-cho was found to be 8.32 ± 1.09 mmol/L, the Trig stood at 10.72 ± 2.68 mmol/L, the “blood-lipid-lowering effect on the mouse model of high blood lipid caused by the egg yolk emulsion” value is on record as “neither ursolic acid nor artesunate had the blood-lipid-lowering effect” and the “Reduction rate of cholesterol” value was −2.21%. The “Reduction rate of triglyceride” value was −4.89%.
Consider `C[C@H]1[C@H](C)CC[C@]2(C(=O)O)CC[C@]3(C)C(=CC[C@@H]4[C@@]5(C)CC[C@H](O)C(C)(C)[C@@H]5CC[C@]43C)[C@H]12` [Ursolic acid, ursolic acid], for which the T-cho came out at 9.11 ± 1.49 mmol/L, the Trig stood at 13.37 ± 3.63 mmol/L, the “blood-lipid-lowering effect on the mouse model of high blood lipid caused by the egg yolk emulsion” value is “neither ursolic acid nor artesunate had the blood-lipid-lowering effect” and the “Reduction rate of cholesterol” value is reported as −11.92%. Besides, the “Reduction rate of triglyceride” value is −30.82%.

Source of the values: patent US20120041058A1, “COMPOSITION OF TRADITIONAL CHINESE MEDICINE FOR REDUCING BLOOD FAT AND PREPARATION METHOD THEREOF” (ANJI GREEN LIFE BIOTECH CO., LTD., priority 2009, published 2012).
